# Data taken from PubChem BioAssay (NCI).
#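 Compound exposure: 48 hours, 5 concentrations, 96-well plates. The concentration for full growth arrest is given as TGI.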
# Key:
# Assay in all cases: NCI anticancer screen, dose series, 48 h
# SNB-19 CNS = system: SNB-19 CNS
# SN12C renal = system: SN12C renal
# OVCAR-4 ovarian = system: OVCAR-4 ovarian
# MDA-N = system: MDA-N
# SW-620 colon = system: SW-620 colon
# ACHN renal = system: ACHN renal
# OVCAR-8 ovarian = system: OVCAR-8 ovarian
# LOX IMVI melanoma = system: LOX IMVI melanoma
# T-47D breast = system: T-47D breast
# A549 NSCLC = system: A549 NSCLC
# OVCAR-3 ovarian = system: OVCAR-3 ovarian
# U251 CNS = system: U251 CNS
# COLO 205 colon = system: COLO 205 colon
# NCI-H226 lung = system: NCI-H226 lung
# MDA-MB-231 breast = system: MDA-MB-231 breast
# K-562 leukemia = system: K-562 leukemia
# SK-MEL-2 melanoma = system: SK-MEL-2 melanoma
# SF-295 CNS = system: SF-295 CNS
# HL-60(TB) leukemia = system: HL-60(TB) leukemia
# HCT-116 colon = system: HCT-116 colon
# UACC-257 melanoma = system: UACC-257 melanoma
# MDA-MB-435 = system: MDA-MB-435
# EKVX NSCLC = system: EKVX NSCLC
# MOLT-4 leukemia = system: MOLT-4 leukemia
# OVCAR-5 ovarian = system: OVCAR-5 ovarian
# MALME-3M melanoma = system: MALME-3M melanoma
# M14 melanoma = system: M14 melanoma
# SF-268 CNS = system: SF-268 CNS
# CCRF-CEM leukemia = system: CCRF-CEM leukemia
# NCI-H522 lung = system: NCI-H522 lung
# KM12 colon = system: KM12 colon
# SK-MEL-5 melanoma = system: SK-MEL-5 melanoma
# NCI-H23 lung = system: NCI-H23 lung
# DU-145 prostate = system: DU-145 prostate
# NCI/ADR-RES ovarian = system: NCI/ADR-RES ovarian
# SNB-75 CNS = system: SNB-75 CNS
# NCI-H460 lung = system: NCI-H460 lung
# SF-539 CNS = system: SF-539 CNS
# SK-OV-3 ovarian = system: SK-OV-3 ovarian
# CAKI-1 renal = system: CAKI-1 renal
# TK-10 renal = system: TK-10 renal
# UACC-62 melanoma = system: UACC-62 melanoma
# SK-MEL-28 melanoma = system: SK-MEL-28 melanoma
# HOP-62 NSCLC = system: HOP-62 NSCLC
# HT29 colon = system: HT29 colon
# IGROV1 ovarian = system: IGROV1 ovarian
# HCT-15 colon = system: HCT-15 colon
# PC-3 prostate = system: PC-3 prostate
# BT-549 breast = system: BT-549 breast
# RXF 393 renal = system: RXF 393 renal
# 786-0 renal = system: 786-0 renal
# RPMI-8226 leukemia = system: RPMI-8226 leukemia
# MCF7 breast = system: MCF7 breast
# HOP-92 NSCLC = system: HOP-92 NSCLC
# HCC-2998 colon = system: HCC-2998 colon
# A498 renal = system: A498 renal
structure (smiles),measurement,setting,value
COC(=O)C1=C(O)C(C(=O)OC)[C@]2(O)[C@@H](C(=O)OC)[C@H]1[C@H](C)[C@@H](c1ccccc1)[C@@H]2C(=O)OC (some centres not stated),TGI,SNB-19 CNS,> 100 µM
same,TGI,SN12C renal,> 100 µM
same,TGI,OVCAR-4 ovarian,> 100 µM
same,TGI,MDA-N,> 100 µM
same,TGI,SW-620 colon,> 100 µM
same,TGI,ACHN renal,> 100 µM
same,TGI,OVCAR-8 ovarian,> 100 µM
same,TGI,LOX IMVI melanoma,> 100 µM
same,TGI,T-47D breast,> 100 µM
same,TGI,A549 NSCLC,> 100 µM
same,TGI,OVCAR-3 ovarian,> 100 µM
same,TGI,U251 CNS,> 100 µM
same,TGI,COLO 205 colon,> 100 µM
same,TGI,NCI-H226 lung,> 100 µM
same,TGI,MDA-MB-231 breast,> 100 µM
same,TGI,K-562 leukemia,> 100 µM
same,TGI,SK-MEL-2 melanoma,> 100 µM
same,TGI,SF-295 CNS,> 100 µM
same,TGI,HL-60(TB) leukemia,62.3 µM
same,TGI,HCT-116 colon,> 100 µM
same,TGI,UACC-257 melanoma,> 100 µM
same,TGI,MDA-MB-435,> 100 µM
same,TGI,EKVX NSCLC,> 100 µM
same,TGI,MOLT-4 leukemia,> 100 µM
same,TGI,OVCAR-5 ovarian,> 100 µM
same,TGI,MALME-3M melanoma,> 100 µM
same,TGI,M14 melanoma,> 100 µM
same,TGI,SF-268 CNS,> 100 µM
same,TGI,CCRF-CEM leukemia,70.7 µM
same,TGI,NCI-H522 lung,47.1 µM
same,TGI,KM12 colon,> 100 µM
same,TGI,SK-MEL-5 melanoma,> 100 µM
same,TGI,NCI-H23 lung,> 100 µM
same,TGI,DU-145 prostate,> 100 µM
same,TGI,NCI/ADR-RES ovarian,> 100 µM
same,TGI,SNB-75 CNS,> 100 µM
same,TGI,NCI-H460 lung,> 100 µM
same,TGI,SF-539 CNS,> 100 µM
same,TGI,SK-OV-3 ovarian,> 100 µM
same,TGI,CAKI-1 renal,> 100 µM
same,TGI,TK-10 renal,> 100 µM
same,TGI,UACC-62 melanoma,> 100 µM
same,TGI,SK-MEL-28 melanoma,> 100 µM
same,TGI,HOP-62 NSCLC,> 100 µM
same,TGI,HT29 colon,> 100 µM
same,TGI,IGROV1 ovarian,93.5 µM
same,TGI,HCT-15 colon,> 100 µM
same,TGI,PC-3 prostate,> 100 µM
same,TGI,BT-549 breast,> 100 µM
same,TGI,RXF 393 renal,> 100 µM
same,TGI,786-0 renal,> 100 µM
CCOC(=O)CCSS(=O)(=O)c1ccccc1,TGI,SNB-19 CNS,> 100 µM
same,TGI,SN12C renal,> 100 µM
same,TGI,OVCAR-4 ovarian,> 100 µM
same,TGI,MDA-N,> 100 µM
same,TGI,SW-620 colon,> 100 µM
same,TGI,ACHN renal,> 100 µM
same,TGI,OVCAR-8 ovarian,> 100 µM
same,TGI,LOX IMVI melanoma,77.4 µM
same,TGI,T-47D breast,> 100 µM
same,TGI,A549 NSCLC,> 100 µM
same,TGI,OVCAR-3 ovarian,> 100 µM
same,TGI,U251 CNS,> 100 µM
same,TGI,COLO 205 colon,> 100 µM
same,TGI,NCI-H226 lung,> 100 µM
same,TGI,SK-MEL-2 melanoma,> 100 µM
same,TGI,SF-295 CNS,> 100 µM
same,TGI,HL-60(TB) leukemia,> 100 µM
same,TGI,UACC-257 melanoma,> 100 µM
same,TGI,MDA-MB-435,> 100 µM
same,TGI,EKVX NSCLC,> 100 µM
same,TGI,RPMI-8226 leukemia,99 µM
same,TGI,OVCAR-5 ovarian,> 100 µM
same,TGI,M14 melanoma,> 100 µM
same,TGI,MCF7 breast,> 100 µM
same,TGI,HOP-92 NSCLC,> 100 µM
same,TGI,CCRF-CEM leukemia,> 100 µM
same,TGI,KM12 colon,> 100 µM
same,TGI,SK-MEL-5 melanoma,> 100 µM
same,TGI,NCI-H23 lung,> 100 µM
same,TGI,DU-145 prostate,> 100 µM
same,TGI,NCI/ADR-RES ovarian,> 100 µM
same,TGI,SNB-75 CNS,> 100 µM
same,TGI,NCI-H460 lung,> 100 µM
same,TGI,SK-OV-3 ovarian,> 100 µM
same,TGI,CAKI-1 renal,> 100 µM
same,TGI,TK-10 renal,> 100 µM
same,TGI,UACC-62 melanoma,> 100 µM
same,TGI,HCC-2998 colon,> 100 µM
same,TGI,SK-MEL-28 melanoma,> 100 µM
same,TGI,HOP-62 NSCLC,> 100 µM
same,TGI,HCT-15 colon,> 100 µM
same,TGI,A498 renal,> 100 µM
same,TGI,PC-3 prostate,> 100 µM
same,TGI,BT-549 breast,> 100 µM
same,TGI,RXF 393 renal,> 100 µM
same,TGI,786-0 renal,63.9 µM
